Data on 33 compounds can be found in US4003887A, “Novel penicillins and their preparation” (Sumitomo Chemical Company, Limited, priority 1972, dated 1977).

In brackets after ≈: the same amount, converted by molar mass.

The test deals with Klebsiella pneumoniae PC1602. As to the kind of experiment: Minimal inhibitory concentration, agar dilution method. It is filed as cell-based. From the text: When determined according to the agar dilution method, the penicillins (I) afford the minimal inhibitory concentrations against test microorganisms as shown in Table 2.
Turning to `CCOC(=O)Oc1ccc([C@@H](NC(=O)c2cnc3ccccc3c2OC(=O)OCC)C(=O)N[C@@H]2C(=O)N3[C@@H]2SC(C)(C)[C@@H]3C(=O)O)cc1` [Example 12], the MIC came out at 25 µg/mL (≈ 36.7 µM). On to `CC1(C)S[C@@H]2[C@H](NC(=O)C(NC(=O)c3ccccn3)c3ccccc3)C(=O)N2[C@H]1C(=O)O` (stereo partly drawn) [R, reference compound], for which the Minimal inhibitory concentration was 50 µg/mL (≈ 110 µM).

`CCOC(=O)Oc1ccc([C@@H](NC(=O)c2cnc3nc(C)ccc3c2O)C(=O)N[C@@H]2C(=O)N3[C@@H]2SC(C)(C)[C@@H]3C(=O)O)cc1` [Example 15] came in with an MIC of 12.5 µg/mL (≈ 20 µM). `CCOC(=O)Oc1ccc(C(NC(=O)c2cnc3ccc(N(C)C)nc3c2O)C(=O)N[C@@H]2C(=O)N3[C@@H]2SC(C)(C)[C@@H]3C(=O)O)cc1` (mixture of isomers) [Example 3, DL-α-(4-hydroxy-6-dimethylamino-1,5-naphthyridine-3-carboxamido)-p-ethoxycarbonyloxybenzylpenicillin]: the lowest concentration to inhibit growth (MIC) was 3.13 µg/mL.

The compound `CCOC(=O)Oc1ccc([C@@H](NC(=O)c2cnc3ccc(SC)nc3c2O)C(=O)N[C@@H]2C(=O)N3[C@@H]2SC(C)(C)[C@@H]3C(=O)O)cc1` [Example 17] returned an MIC of 3.13 µg/mL (≈ 4.77 µM). Take `Cc1ccc2c(O)c(C(=O)N[C@@H](C(=O)N[C@@H]3C(=O)N4[C@@H]3SC(C)(C)[C@@H]4C(=O)O)c3ccc(O)cc3)cnc2n1` [Example 7, D-α-(4-hydroxy-7-methyl-1,8-naphthyridine-3-carboxamido)-p-hydroxybenzylpenicillin]: the minimum inhibitory concentration (MIC) was found to be 12.5 µg/mL (≈ 22.7 µM). This MIC lies about 4-fold higher than the previous one. `CC1(C)S[C@@H]2[C@H](NC(=O)[C@H](NC(=O)c3cnc4ccc(N)nc4c3O)c3ccc(O)cc3)C(=O)N2[C@H]1C(=O)O` [Example 24] showed an MIC of 12.5 µg/mL (≈ 22.6 µM). In turn, `CC1(C)S[C@@H]2[C@H](NC(=O)[C@H](NC(=O)c3cnc4cccnc4c3S)c3ccc(O)cc3)C(=O)N2[C@H]1C(=O)O` [Example 43] yielded an MIC of 6.25 µg/mL (≈ 11.3 µM). `CCOC(=O)Oc1ccc([C@@H](NC(=O)c2cnc3scnc3c2O)C(=O)N[C@@H]2C(=O)N3[C@@H]2SC(C)(C)[C@@H]3C(=O)O)cc1` [Example 42] registered an MIC of 12.5 µg/mL (≈ 20.3 µM). Turning to `CC1(C)S[C@@H]2[C@H](NC(=O)[C@H](NC(=O)c3cnc4cccnc4c3O)c3ccc(O)c(Cl)c3)C(=O)N2[C@H]1C(=O)O` [Example 32], 25 µg/mL (≈ 43.7 µM) was the least that counted as inhibitory (MIC). Compared with the last compound, the MIC is about 2-fold higher.

As to `CCOC(=O)Oc1ccc([C@@H](NC(=O)c2cnc3cc(Cl)ccc3c2O)C(=O)N[C@@H]2C(=O)N3[C@@H]2SC(C)(C)[C@@H]3C(=O)O)cc1` [Example 10], the MIC was 3.13 µg/mL (≈ 4.87 µM). Same read-out and setting: the figure for `CCOC(=O)Oc1ccc([C@@H](NC(=O)c2cnc3cccnc3c2S)C(=O)N[C@@H]2C(=O)N3[C@@H]2SC(C)(C)[C@@H]3C(=O)O)cc1` [Example 39] is 6.25 µg/mL (≈ 9.99 µM); for `COc1cnc2c(O)c(C(=O)N[C@@H](C(=O)N[C@@H]3C(=O)N4[C@@H]3SC(C)(C)[C@@H]4C(=O)O)c3ccc(O)cc3)cnc2n1` [Example 41] it is 25 µg/mL (≈ 44 µM); for `CCOC(=O)Oc1ccc([C@@H](NC(=O)c2cnc3ccc(NC(C)=O)nc3c2O)C(=O)N[C@@H]2C(=O)N3[C@@H]2SC(C)(C)[C@@H]3C(=O)O)cc1` [Example 23] it is 25 µg/mL (≈ 37.5 µM). `COc1nc(OC)c2c(O)c(C(=O)N[C@@H](C(=O)N[C@@H]3C(=O)N4[C@@H]3SC(C)(C)[C@@H]4C(=O)O)c3ccc(O)cc3)cnc2n1` [Example 28]: the minimum inhibitory concentration (MIC) is 12.5 µg/mL (≈ 20.9 µM).

The compound `CC1(C)S[C@@H]2[C@H](NC(=O)[C@H](NC(=O)c3cnc4ccccc4c3O)c3cccc(O)c3)C(=O)N2[C@H]1C(=O)O` [Example 13] yielded a minimal inhibitory concentration (MIC) of 25 µg/mL (≈ 46.6 µM). For the compound `CC1(C)S[C@@H]2[C@H](NC(=O)C(NC(=O)c3cnc4ccccc4c3O)c3ccc(O)cc3)C(=O)N2[C@H]1C(=O)O` (mixture of isomers) [Example 6, DL-α-(4-hydroxyquinoline-3-carboxamido)-p-hydroxybenzylpenicillin], the MIC turned out to be 25 µg/mL. With `CC1(C)S[C@@H]2[C@H](NC(=O)C(NC(=O)c3cnc4cccnc4c3S)c3cc(Cl)c(O)c(Cl)c3)C(=O)N2[C@H]1C(=O)O` (stereo partly drawn) [Example 40], the lowest concentration to inhibit growth (MIC) was 25 µg/mL (≈ 40.2 µM). On the same count and under the same terms, the figure for `CC1(C)S[C@@H]2[C@H](NC(=O)[C@H](NC(=O)c3cnc4ccncc4c3O)c3ccc(O)cc3)C(=O)N2[C@H]1C(=O)O` [Example 29] is 25 µg/mL (≈ 46.5 µM); for `CC1(C)S[C@@H]2[C@H](NC(=O)[C@H](NC(=O)c3cnc4cncnc4c3O)c3ccc(O)cc3)C(=O)N2[C@H]1C(=O)O` [Example 34] it is 12.5 µg/mL (≈ 23.2 µM). Take `CC1(C)S[C@@H]2[C@H](NC(=O)C(NC(=O)c3cnc4cccnc4c3O)c3cccc(O)c3)C(=O)N2[C@H]1C(=O)O` (stereo partly drawn) [Example 26]: the Minimal inhibitory concentration was 25 µg/mL (≈ 46.5 µM). `CCOC(=O)Oc1ccc([C@@H](NC(=O)c2cnc3ccc(N(C)C)nc3c2O)C(=O)N[C@@H]2C(=O)N3[C@@H]2SC(C)(C)[C@@H]3C(=O)O)cc1Cl` [Example 25] gave an MIC of 12.5 µg/mL (≈ 18.2 µM). On the same count and under the same terms, the figure for `Cc1nc(C)c2c(O)c(C(=O)N[C@@H](C(=O)N[C@@H]3C(=O)N4[C@@H]3SC(C)(C)[C@@H]4C(=O)O)c3ccc(O)cc3)cnc2n1` [Example 31] is 12.5 µg/mL (≈ 22.1 µM); for `CC1(C)S[C@@H]2[C@H](NC(=O)[C@H](NC(=O)c3cnc4ccccc4c3O)c3ccc(O)c(Cl)c3)C(=O)N2[C@H]1C(=O)O` [Example 14] it is 25 µg/mL (≈ 43.8 µM); for `CC1(C)S[C@@H]2[C@H](NC(=O)[C@H](NC(=O)c3cnc4cc(C(F)(F)F)ccc4c3O)c3ccc(O)cc3)C(=O)N2[C@H]1C(=O)O` [Example 11] it is 0.78 µg/mL (≈ 1.29 µM). As to `Cc1nc(C)c2ncc(C(=O)N[C@@H](C(=O)N[C@@H]3C(=O)N4[C@@H]3SC(C)(C)[C@@H]4C(=O)O)c3ccc(O)cc3)c(O)c2n1` [Example 35], it took 12.5 µg/mL (≈ 22.1 µM) to inhibit growth (MIC). With `CCOC(=O)Oc1ccc([C@@H](NC(=O)c2cnc3cn[nH]c3c2O)C(=O)N[C@@H]2C(=O)N3[C@@H]2SC(C)(C)[C@@H]3C(=O)O)cc1` [Example 33], 12.5 µg/mL (≈ 20.9 µM) was the least that counted as inhibitory (MIC). Compound `CC1(C)S[C@@H]2[C@H](NC(=O)C(NC(=O)c3cnc4cccnc4c3O)c3ccc(O)cc3)C(=O)N2[C@H]1C(=O)O` (mixture of isomers) [Example 2, DL-α-(4-hydroxy-1,5-naphthyridine-3-carboxamido)-p-hydroxybenzylpenicillin] displayed an MIC of 25 µg/mL. The same measure, in the same setting: the figure for `CCOC(=O)Oc1ccc([C@@H](NC(=O)c2cnc3c(OC)nc(OC)nc3c2O)C(=O)N[C@@H]2C(=O)N3[C@@H]2SC(C)(C)[C@@H]3C(=O)O)cc1` [Example 36] is 25 µg/mL (≈ 37.3 µM); for `CC(C)COC(=O)Oc1ccc([C@@H](NC(=O)c2cnc3nc(N(C)C)ncc3c2O)C(=O)N[C@@H]2C(=O)N3[C@@H]2SC(C)(C)[C@@H]3C(=O)O)cc1` [Example 30] it is 12.5 µg/mL (≈ 18.3 µM); for `CC(C)(C)C(=O)Oc1ccc([C@@H](NC(=O)c2cnc3ccccc3c2O)C(=O)N[C@@H]2C(=O)N3[C@@H]2SC(C)(C)[C@@H]3C(=O)O)cc1` [Example 4, D-α-(4-hydroxyquinoline-3-carboxamido)-p-pivaloyloxybenzylpenicillin] it is 12.5 µg/mL (≈ 20.1 µM). Regarding `CCOC(=O)Oc1ccc([C@@H](NC(=O)c2cnc3cc([N+](=O)[O-])ccc3c2O)C(=O)N[C@@H]2C(=O)N3[C@@H]2SC(C)(C)[C@@H]3C(=O)O)cc1` [Example 20], the MIC worked out at 3.13 µg/mL (≈ 4.79 µM). In turn, `CC1(C)S[C@@H]2[C@H](NC(=O)C(NC(=O)c3cnc4cccnc4c3O)c3cccc(O)c3)C(=O)N2[C@H]1C(=O)O` (stereo partly drawn) [Example 16] came in with an MIC of 25 µg/mL (≈ 46.5 µM).
